Results published in patent US20060069132A1, “Azolecarboxamide herbicides” (priority 2004, published 2006).

How the values were obtained:
barnyardgrass [1] = test: Test A pre-/postemergence herbicide test; format: in vivo, Echinochloa crus-galli; conditions: for Plant response rating, Barnyardgrass: Postemergence; for Barnyardgrass plant response rating: Preemergence
Summary of the method: (§1)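 Visual injury scores on a 0–100 scale (100 = complete control) taken about ten days post-treatment in greenhouse against untreated controls; dash means no result. Treatments: preemergence soil spray and postemergence spray to runoff on one- to two-leaf plants 2 to 10 cm tall, surfactant-containing formulation.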

large crabgrass [2] = test: Test A pre-/postemergence herbicide test; format: in vivo, Digitaria sanguinalis; conditions: for Plant response rating, Crabgrass, Large: Postemergence; for Crabgrass, Large plant response rating: Preemergence
Summary of the method: as §1

giant foxtail [3] = test: Test A pre-/postemergence herbicide test; format: in vivo, Setaria faberi; conditions: for Plant response rating, Foxtail, Giant: Postemergence; for Foxtail, Giant plant response rating: Preemergence
Summary of the method: as §1

morningglory [4] = test: Test A pre-/postemergence herbicide test; format: in vivo, Ipomoea spp.; conditions: for Plant response rating, Morningglory: Postemergence; for Morningglory plant response rating: Preemergence
Summary of the method: as §1

redroot pigweed = test: Test A pre-/postemergence herbicide test; format: in vivo, Amaranthus retroflexus; conditions: for Plant response rating, Pigweed: Postemergence; for Pigweed plant response rating: Preemergence
Summary of the method: as §1

velvetleaf [5] = test: Test A pre-/postemergence herbicide test; format: in vivo, Abutilon theophrasti; conditions: for Velvetleaf plant response rating: Preemergence, visual rating, 0 to 100 scale (0 no effect, 100 complete control)
Summary of the method: as §1

barnyardgrass [6] = test: Test B pre-/postemergence herbicide test; format: in vivo, Echinochloa crus-galli
Summary of the method: (§2)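 Response was scored visually 13 to 15 days after treatment against untreated greenhouse controls, 0 meaning no effect and 100 complete control. Formulations (solvent mixture plus surfactant) went onto soil after planting, onto foliage of 1- to 4-leaf plants, and onto 2-leaf plants in a flooded paddy set including rice and barnyardgrass.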

Surinam grass = test: Test B pre-/postemergence herbicide test; format: in vivo, Urochloa decumbens
Summary of the method: (§3)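 Herbicidal effect was judged by eye on a 0–100 scale after plants stood 13 to 15 days in the greenhouse following pre- or postemergence treatment with surfactant-containing formulations.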

cocklebur = test: Test B pre-/postemergence herbicide test; format: in vivo, Xanthium strumarium
Summary of the method: as §2

corn = test: Test B pre-/postemergence herbicide test; format: in vivo, Zea mays
Summary of the method: as §3

large crabgrass [7] = test: Test B pre-/postemergence herbicide test; format: in vivo, Digitaria sanguinalis
Summary of the method: as §3

giant foxtail [8] = test: Test B pre-/postemergence herbicide test; format: in vivo, Setaria faberi
Summary of the method: as §3

lambsquarters = test: Test B pre-/postemergence herbicide test; format: in vivo, Chenopodium album; conditions: scale 0 (no effect) to 100 (complete control)
Summary of the method: as §3

morningglory [9] = test: Test B pre-/postemergence herbicide test; format: in vivo, Ipomoea coccinea
Summary of the method: as §2

pigweed = test: Test B pre-/postemergence herbicide test; format: in vivo, Amaranthus retroflexus
Summary of the method: as §3

rice [10] = test: Test B pre-/postemergence herbicide test; format: in vivo, Oryza sativa; conditions: preemergence, 125 g ai/ha; 0 to 100 scale, 0 is no effect, 100 is complete control
Summary of the method: as §3

velvetleaf [11] = test: Test B pre-/postemergence herbicide test; format: in vivo, Abutilon theophrasti
Summary of the method: as §3

blackgrass = test: Test B postemergence herbicide test; format: in vivo, Alopecurus myosuroides; conditions: scale 0 (no effect) to 100 (complete control)
Summary of the method: (§4)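 Visual control ratings, 0–100 versus untreated controls, taken after 13 to 15 days in the greenhouse. Blackgrass received a postemergence spray at the 1- to 4-leaf stage (2–18 cm); ducksalad, umbrella sedge and barnyardgrass were flooded-paddy treated at 2 leaves.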

wheat = test: Test B postemergence herbicide test; format: in vivo, Triticum aestivum; design: key to Wheat plant response rating: 0 = no effect, 100 = complete control; conditions: scale 0 (no effect) to 100 (complete control)
Summary of the method: (§5)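 Plants grow to 1- to 4-leaf stage (2–18 cm) for postemergence spraying, or to 2-leaf stage for the paddy test. Formulated compound is applied. Greenhouse holding lasts 13–15 days. Response is scored visually relative to controls, 0 no effect to 100 complete control; a dash means no result.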

wild oat = test: Test B postemergence herbicide test; format: in vivo, Avena fatua; conditions: scale 0 (no effect) to 100 (complete control)
Summary of the method: as §5

rice [12] = test: Test B flooded paddy test; format: in vivo, Oryza sativa; conditions: 1000 g ai/ha, visual rating, scale 0 to 100 (0 no effect, 100 complete control), 13 to 15 days
Summary of the method: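 Treated at 2-leaf (paddy) or 1–4-leaf, 2–18 cm (postemergence); greenhouse 13–15 d; visual score vs control, 0 none to 100 complete control; dash = not tested.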

[13] = tested on: small flower umbrella sedge; test: Test B flooded paddy test; format: in vivo, Cyperus difformis; conditions: 1000 g ai/ha, visual rating, scale 0 to 100 (0 no effect, 100 complete control), 13 to 15 days
Summary of the method: as §4

ducksalad = test: Test B flooded paddy test; format: in vivo, Heteranthera limosa; conditions: 1000 g ai/ha, visual rating, scale 0 to 100 (0 no effect, 100 complete control), 13 to 15 days
Summary of the method: as §4

barnyardgrass [14] = test: Test B flooded paddy test; format: in vivo, Echinochloa crus-galli; conditions: 1000 g ai/ha, visual rating, scale 0 to 100 (0 no effect, 100 complete control), 13 to 15 days
Summary of the method: as §4

[15] = 500 g ai/ha, 0 to 100 scale, 0 no effect, 100 complete control
[16] = 2000 g ai/ha, 0 to 100 scale, 0 no effect, 100 complete control
[17] = 500 g ai/ha, visual rating, 0 to 100 scale (0 no effect, 100 complete control)
[18] = Postemergence, 500 g ai/ha, visual rating after 13 to 15 days, scale 0 (no effect) to 100 (complete control)
[19] = Preemergence, 500 g ai/ha, scale 0 to 100
[20] = postemergence, 125 g ai/ha, visual rating, scale 0 (no effect) to 100 (complete control)
[21] = preemergence, 125 g ai/ha, 0 to 100 scale, 0 is no effect, 100 is complete control
[22] = Postemergence, 500 g ai/ha, visual rating after 13 to 15 days
[23] = postemergence, 125 g ai/ha, visual rating

SMILES: CCOC(=O)c1ccc(F)c(NC(=O)c2cc(C(C)(C)C)nn2CC)c1 [Compound 70]
- Plant response rating, Barnyardgrass (barnyardgrass [1]; [15]): 25
- Plant response rating, Barnyardgrass (barnyardgrass [1]; [16]): 30
- Barnyardgrass plant response rating (barnyardgrass [1]; [17]): 20
- Barnyardgrass plant response rating (barnyardgrass [1]; [16]): 20
- Plant response rating, Crabgrass, Large (large crabgrass [2]; [15]): 25
- Plant response rating, Crabgrass, Large (large crabgrass [2]; [16]): 30
- Crabgrass, Large plant response rating (large crabgrass [2]; [17]): 35
- Crabgrass, Large plant response rating (large crabgrass [2]; [16]): 45
- Plant response rating, Foxtail, Giant (giant foxtail [3]; [15]): 20
- Plant response rating, Foxtail, Giant (giant foxtail [3]; [16]): 20
- Foxtail, Giant plant response rating (giant foxtail [3]; [17]): 40
- Foxtail, Giant plant response rating (giant foxtail [3]; [16]): 55
- Plant response rating, Morningglory (morningglory [4]; [15]): 25
- Plant response rating, Morningglory (morningglory [4]; [16]): 30
- Morningglory plant response rating (morningglory [4]; [17]): 20
- Morningglory plant response rating (morningglory [4]; [16]): 10
- Plant response rating, Pigweed (redroot pigweed; [15]): 60
- Plant response rating, Pigweed (redroot pigweed; [16]): 75
- Pigweed plant response rating (redroot pigweed; [17]): 0
- Pigweed plant response rating (redroot pigweed; [16]): 5
- Plant response rating, Velvetleaf (velvetleaf [5]; Postemergence, 2000 g ai/ha, 0 to 100 scale, 0 no effect, 100 complete control): 30
- Velvetleaf plant response rating (velvetleaf [5]; 500 g ai/ha): 10
- Velvetleaf plant response rating (velvetleaf [5]; 2000 g ai/ha): 20
- Plant response rating, Barnyardgrass (barnyardgrass [6]; [18]): 20
- Barnyardgrass plant response rating (barnyardgrass [6]; [19]): 50
- Barnyardgrass plant response rating (barnyardgrass [6]; [20]): 20
- Plant response rating, Barnyardgrass (barnyardgrass [6]; [21]): 40
- Plant response rating, Surinam Grass (Surinam grass; [18]): 20
- Surinam Grass plant response rating (Surinam grass; [20]): 20
- Plant response rating, Surinam Grass (Surinam grass; [21]): 40
- Plant response rating, Cocklebur (cocklebur; [18]): 100
- Cocklebur plant response rating (cocklebur; [19]): 0
- Cocklebur plant response rating (cocklebur; [20]): 50
- Plant response rating, Cocklebur (cocklebur; [21]): 0
- Plant response rating, Corn (corn; [18]): 20
- Corn plant response rating (corn; [19]): 20
- Corn plant response rating (corn; [20]): 20
- Plant response rating, Corn (corn; [21]): 10
- Plant response rating, Crabgrass, Large (large crabgrass [7]; [18]): 20
- Crabgrass, Large plant response rating (large crabgrass [7]; [19]): 100
- Crabgrass, Large plant response rating (large crabgrass [7]; [20]): 20
- Plant response rating, Crabgrass, Large (large crabgrass [7]; [21]): 100
- Plant response rating, Foxtail, Giant (giant foxtail [8]; [18]): 30
- Foxtail, Giant plant response rating (giant foxtail [8]; [19]): 100
- Foxtail, Giant plant response rating (giant foxtail [8]; [20]): 20
- Plant response rating, Foxtail, Giant (giant foxtail [8]; [21]): 90
- Plant response rating, Lambsquarters (lambsquarters; [22]): 80
- Lambsquarters plant response rating (lambsquarters; [23]): 80
- Plant response rating, Morningglory (morningglory [9]; [18]): 30
- Morningglory plant response rating (morningglory [9]; [20]): 20
- Plant response rating, Morningglory (morningglory [9]; [21]): 10
- Plant response rating, Pigweed (pigweed; [18]): 50
- Pigweed plant response rating (pigweed; [20]): 30
- Plant response rating, Pigweed (pigweed; [21]): 30
- Plant response rating, Rice (rice [10]): 0
- Plant response rating, Velvetleaf (velvetleaf [11]; [18]): 60
- Velvetleaf plant response rating (velvetleaf [11]; [20]): 20
- Plant response rating, Velvetleaf (velvetleaf [11]; [21]): 30
- Plant response rating, Blackgrass (blackgrass; [22]): 20
- Blackgrass plant response rating (blackgrass; [23]): 10
- Plant response rating, Wheat (wheat; [22]): 20
- Wheat plant response rating (wheat; [23]): 10
- Plant response rating, Oat, Wild (wild oat; [22]): 20
- Oat, Wild plant response rating (wild oat; [23]): 20
- Rice plant response rating (rice [12]): 10
- Sedge, Umbrella plant response rating [13]: 30
- Ducksalad plant response rating (ducksalad): 0
- Barnyardgrass plant response rating (barnyardgrass [14]): 10
